From article PMC5218480 (PLoS ONE, 2017)

Tested on: MV-4-11 cells
Assay: Gene expression microarray analysis (Affymetrix PrimeView) and GSEA
Format: cell-based, human
Parameters: RFU PODN (11730768_x_at) / Fold change /veh PODN (11730768_x_at) / RFU LINC00158 (11744669_a_at) / Fold change /veh LINC00158 (11744669_a_at) / RFU DUSP10 (11751237_a_at) / Fold change /veh DUSP10 (11751237_a_at) / RFU ID3 (11757404_x_at) / Fold change /veh ID3 (11757404_x_at) / RFU PLEKHG5 (11737974_s_at) / Fold change /veh PLEKHG5 (11737974_s_at) / RFU LRRC4B (11730491_at) / Fold change /veh LRRC4B (11730491_at) / RFU GIMAP4 (11747438_a_at) / Fold change /veh GIMAP4 (11747438_a_at) / RFU KRT8 (11758183_x_at) / Fold change /veh KRT8 (11758183_x_at) / RFU CNN1 (11734310_a_at) / Fold change /veh CNN1 (11734310_a_at) / RFU VPS37D (11726825_at) / Fold change /veh VPS37D (11726825_at) / RFU C10orf10 (11716522_x_at) / Fold change /veh C10orf10 (11716522_x_at) / RFU KIR2DL2 /// KIR2DL4 /// KIR2DL5A /// KIR2DL5B /// KIR2DS1 /// KIR2DS2 /// KIR2DS3 /// KIR2DS4 /// KIR3DL3 /// KIR3DL3 /// KIR3DS1 (11738374_at) / Fold change /veh KIR2DL2 /// KIR2DL4 /// KIR2DL5A /// KIR2DL5B /// KIR2DS1 /// KIR2DS2 /// KIR2DS3 /// KIR2DS4 /// KIR3DL3 /// KIR3DL3 /// KIR3DS1 (11738374_at) / RFU C1QL1 (11718748_at) / Fold change /veh C1QL1 (11718748_at) / RFU TMPRSS4 (11747572_a_at) / Fold change /veh TMPRSS4 (11747572_a_at) / RFU HAMP (11756126_x_at) / Fold change /veh HAMP (11756126_x_at) / RFU RNFT2 (11725882_a_at) / Fold change /veh RNFT2 (11725882_a_at) / RFU NR4A2 (11747474_a_at) / Fold change /veh NR4A2 (11747474_a_at) / RFU ABCC12 (11746883_a_at) / Fold change /veh ABCC12 (11746883_a_at) / RFU TMEM136 (11760407_x_at) / Fold change /veh TMEM136 (11760407_x_at) / RFU CLDN22 /// WWC2 (11732394_at) / Fold change /veh CLDN22 /// WWC2 (11732394_at) / RFU HLA-DPB1 (11760878_x_at) / Fold change /veh HLA-DPB1 (11760878_x_at) / RFU SPINT1 (11716480_a_at) / Fold change /veh SPINT1 (11716480_a_at) / RFU GAP43 (11754022_s_at) / Fold change /veh GAP43 (11754022_s_at) / RFU A4GNT (11735810_at) / Fold change /veh A4GNT (11735810_at) / RFU PRB3 (11715151_x_at) / Fold change /veh PRB3 (11715151_x_at) / RFU TUBB4B (11761932_at) / Fold change /veh TUBB4B (11761932_at) / RFU CAPN14 (11732068_a_at) / Fold change /veh CAPN14 (11732068_a_at) / RFU TMCC2 (11721928_a_at) / Fold change /veh TMCC2 (11721928_a_at) / RFU IRGQ (11745062_a_at) / Fold change /veh IRGQ (11745062_a_at) / RFU FAM174B (11720279_a_at) / Fold change /veh FAM174B (11720279_a_at) / RFU TMPRSS4 (11748680_a_at) / Fold change /veh TMPRSS4 (11748680_a_at) / RFU FAM212B (11763350_a_at) / Fold change /veh FAM212B (11763350_a_at) / RFU PLEKHG5 (11743358_a_at) / Fold change /veh PLEKHG5 (11743358_a_at) / RFU ZSCAN30 (11745921_a_at) / Fold change /veh ZSCAN30 (11745921_a_at) / RFU CMKLR1 (11741424_a_at) / Fold change /veh CMKLR1 (11741424_a_at) / RFU LOC101060620 /// MAPK8IP1 (11723275_at) / Fold change /veh LOC101060620 /// MAPK8IP1 (11723275_at) / RFU SPTSSB (11747773_x_at) / Fold change /veh SPTSSB (11747773_x_at) / RFU PRSS12 (11739890_at) / Fold change /veh PRSS12 (11739890_at) / RFU BIN1 (11741810_x_at) / Fold change /veh BIN1 (11741810_x_at) / RFU WNT11 (11732464_a_at) / Fold change /veh WNT11 (11732464_a_at) / RFU C10orf10 (11716521_a_at) / Fold change /veh C10orf10 (11716521_a_at) / RFU C5orf56 (11738089_at) / Fold change /veh C5orf56 (11738089_at) / RFU CYB561 (11721691_x_at) / Fold change /veh CYB561 (11721691_x_at) / RFU ANKRD19P (11752326_a_at) / Fold change /veh ANKRD19P (11752326_a_at) / RFU OR2T12 /// OR2T33 /// OR2T8 (11738714_s_at) / Fold change /veh OR2T12 /// OR2T33 /// OR2T8 (11738714_s_at) / RFU VCAN (11748164_a_at) / Fold change /veh VCAN (11748164_a_at) / RFU JSRP1 (11732532_at) / Fold change /veh JSRP1 (11732532_at) / RFU KRTAP10-11 (11738290_x_at) / Fold change /veh KRTAP10-11 (11738290_x_at) / RFU MYO3A (11730013_a_at) / Fold change /veh MYO3A (11730013_a_at) / RFU EBF3 (11725865_a_at) / Fold change /veh EBF3 (11725865_a_at) / RFU CAMK2N1 (11719241_x_at) / Fold change /veh CAMK2N1 (11719241_x_at) / RFU C5orf56 (11738088_a_at) / Fold change /veh C5orf56 (11738088_a_at) / RFU OLFML3 (11715873_a_at) / Fold change /veh OLFML3 (11715873_a_at) / RFU LOC100653217 /// NTM (11731650_a_at) / Fold change /veh LOC100653217 /// NTM (11731650_a_at) / RFU MAPK11 (11762145_a_at) / Fold change /veh MAPK11 (11762145_a_at) / RFU FIZ1 (11724087_x_at) / Fold change /veh FIZ1 (11724087_x_at) / RFU OASL (11726364_x_at) / Fold change /veh OASL (11726364_x_at) / RFU SOX15 (11748057_x_at) / Fold change /veh SOX15 (11748057_x_at) / RFU CD79A (11719716_a_at) / Fold change /veh CD79A (11719716_a_at) / RFU HIST1H1D (11736915_at) / Fold change /veh HIST1H1D (11736915_at) / RFU CASKIN2 (11723855_a_at) / Fold change /veh CASKIN2 (11723855_a_at) / RFU LOC730098 (11760151_x_at) / Fold change /veh LOC730098 (11760151_x_at) / RFU OR4N2 (11742367_at) / Fold change /veh OR4N2 (11742367_at) / RFU PRRT2 (11749266_a_at) / Fold change /veh PRRT2 (11749266_a_at) / RFU SNX32 (11753110_a_at) / Fold change /veh SNX32 (11753110_a_at) / RFU CDHR5 (11726645_a_at) / Fold change /veh CDHR5 (11726645_a_at) / RFU RCAN1 (11760418_a_at) / Fold change /veh RCAN1 (11760418_a_at) / RFU FAM167A (11723789_a_at) / Fold change /veh FAM167A (11723789_a_at) / RFU FAM26E (11764081_at) / Fold change /veh FAM26E (11764081_at) / RFU ISYNA1 (11749810_s_at) / Fold change /veh ISYNA1 (11749810_s_at) / RFU ACY1 (11761880_at) / Fold change /veh ACY1 (11761880_at) / RFU 11764098_at / Fold change /veh 11764098_at / RFU SAMD14 (11745864_x_at) / Fold change /veh SAMD14 (11745864_x_at) / RFU NPB (11741838_a_at) / Fold change /veh NPB (11741838_a_at) / RFU TMPRSS6 (11731388_a_at) / Fold change /veh TMPRSS6 (11731388_a_at) / RFU KRTAP10-2 (11738614_at) / Fold change /veh KRTAP10-2 (11738614_at) / RFU ARHGAP8 /// PRR5-ARHGAP8 (11727945_x_at) / Fold change /veh ARHGAP8 /// PRR5-ARHGAP8 (11727945_x_at) / RFU KRTAP5-7 /// NADSYN1 (11734609_at) / Fold change /veh KRTAP5-7 /// NADSYN1 (11734609_at) / RFU RASL12 (11751679_a_at) / Fold change /veh RASL12 (11751679_a_at) / RFU CDKN2B (11736163_a_at) / Fold change /veh CDKN2B (11736163_a_at) / RFU PRF1 (11729649_at) / Fold change /veh PRF1 (11729649_at) / RFU, ZNF638 /// ZNF638-IT1 / Fold change vs veh, ZNF638 /// ZNF638-IT1 / RFU, PANK3 / Fold change vs veh, PANK3 / RFU, SH3YL1 / Fold change vs veh, SH3YL1 / RFU, ZEB2 / Fold change vs veh, ZEB2 / RFU, NRIP1 / Fold change vs veh, NRIP1 / RFU, PTTG1IP / Fold change vs veh, PTTG1IP / RFU, CAPN2 / Fold change vs veh, CAPN2 / RFU, MED14 / Fold change vs veh, MED14 / RFU, SNORA58 / Fold change vs veh, SNORA58 / RFU, C1orf63 / Fold change vs veh, C1orf63 / RFU, LRRFIP1 / Fold change vs veh, LRRFIP1 / RFU, NDUFAF7 / Fold change vs veh, NDUFAF7 / RFU, SLC12A2 / Fold change vs veh, SLC12A2 / RFU, IBTK / Fold change vs veh, IBTK / RFU, ESF1 / Fold change vs veh, ESF1 / Fold change vs veh, TMEM50B / RFU, TAOK1 / Fold change vs veh, TAOK1 / RFU, ACBD3 / Fold change vs veh, ACBD3 / RFU, TMA16 / Fold change vs veh, TMA16 / RFU, RWDD3 / Fold change vs veh, RWDD3 / RFU, BCAT1 / Fold change vs veh, BCAT1 / RFU, EDEM3 / Fold change vs veh, EDEM3 / RFU, TMEM33 / Fold change vs veh, TMEM33 / RFU, WDR75 / Fold change vs veh, WDR75 / RFU, AHCTF1 / Fold change vs veh, AHCTF1 / RFU, TFRC / Fold change vs veh, TFRC / RFU, ZDHHC17 / Fold change vs veh, ZDHHC17 / RFU, NOM1 / Fold change vs veh, NOM1 / RFU, ARL8B / Fold change vs veh, ARL8B / RFU, ZBTB11 / Fold change vs veh, ZBTB11 / RFU, TAMM41 / Fold change vs veh, TAMM41 / RFU, KIAA1704 /// LOC100996395 / Fold change vs veh, KIAA1704 /// LOC100996395 / RFU, ING1 / Fold change vs veh, ING1 / RFU, TRMT61B / Fold change vs veh, TRMT61B / RFU, FUBP3 / Fold change vs veh, FUBP3 / RFU, TP53 / Fold change vs veh, TP53 / RFU, TNKS2 / Fold change vs veh, TNKS2 / RFU, ZFP14 / Fold change vs veh, ZFP14 / RFU, ACTR2 / Fold change vs veh, ACTR2 / RFU, PPP3R1 / Fold change vs veh, PPP3R1 / RFU, PIK3R1 / Fold change vs veh, PIK3R1 / RFU, HNRNPA1 / Fold change vs veh, HNRNPA1 / RFU, RNF170 / Fold change vs veh, RNF170 / RFU, ZNF28 / Fold change vs veh, ZNF28 / RFU, RNGTT / Fold change vs veh, RNGTT / RFU, OGT / Fold change vs veh, OGT / RFU, BRD1 / Fold change vs veh, BRD1 / RFU, MARS / Fold change vs veh, MARS / RFU, ZNF655 / Fold change vs veh, ZNF655 / RFU, FAHD1 / Fold change vs veh, FAHD1 / RFU, BDP1 / Fold change vs veh, BDP1 / RFU, LRRCC1 / Fold change vs veh, LRRCC1 / RFU, ARID1A / Fold change vs veh, ARID1A / RFU, ZNF146 / Fold change vs veh, ZNF146 / RFU, ZNF330 / Fold change vs veh, ZNF330 / RFU, GPN3 / Fold change vs veh, GPN3 / RFU, C9orf123 / Fold change vs veh, C9orf123 / RFU, N4BP2L2 / Fold change vs veh, N4BP2L2 / RFU, ARFIP1 / Fold change vs veh, ARFIP1 / RFU, FAM179B / Fold change vs veh, FAM179B / RFU, BCL10 / Fold change vs veh, BCL10 / RFU, UHRF1BP1L / Fold change vs veh, UHRF1BP1L / RFU, BET1 / Fold change vs veh, BET1 / RFU, CNOT2 / Fold change vs veh, CNOT2 / RFU, ZNF268 / Fold change vs veh, ZNF268 / Fold change vs veh, ZNF507 / RFU, DGCR2 / Fold change vs veh, DGCR2 / RFU, WDSUB1 / Fold change vs veh, WDSUB1 / Fold change vs veh, HSP90B1 /// MIR3652 / RFU, ADSS / Fold change vs veh, ADSS / RFU, GK / Fold change vs veh, GK / RFU, ZNF148 / Fold change vs veh, ZNF148 / RFU, TAF9 / Fold change vs veh, TAF9 / RFU, SLC1A5 / Fold change vs veh, SLC1A5 / RFU, SLMO2 / Fold change vs veh, SLMO2 / RFU, ABCC4 / Fold change vs veh, ABCC4 / RFU, LOC101060439 /// RAP1B / Fold change vs veh, LOC101060439 /// RAP1B / RFU, RFX7 / Fold change vs veh, RFX7 / RFU, GTPBP10 / Fold change vs veh, GTPBP10 / RFU, CNEP1R1 / Fold change vs veh, CNEP1R1 / RFU, BIVM-ERCC5 /// ERCC5 / Fold change vs veh, BIVM-ERCC5 /// ERCC5 / RFU, ILF3 / Fold change vs veh, ILF3 / RFU 11762660_at / Fold change /veh 11762660_at / RFU VCAN (11757783_s_at) / Fold change /veh VCAN (11757783_s_at) / RFU DDX43 (11728927_at) / Fold change /veh DDX43 (11728927_at) / RFU KRT8 (11758188_x_at) / Fold change /veh KRT8 (11758188_x_at) / RFU NKD1 (11759106_at) / Fold change /veh NKD1 (11759106_at) / RFU SRD5A1 (11742802_a_at) / Fold change /veh SRD5A1 (11742802_a_at) / RFU TPSAB1 /// TPSB2 (11721975_s_at) / Fold change /veh TPSAB1 /// TPSB2 (11721975_s_at) / RFU GSTM3 (11746129_a_at) / Fold change /veh GSTM3 (11746129_a_at) / RFU IL23R (11737362_x_at) / Fold change /veh IL23R (11737362_x_at) / RFU TMEM51 (11727254_a_at) / Fold change /veh TMEM51 (11727254_a_at) / RFU PIWIL2 (11732686_x_at) / Fold change /veh PIWIL2 (11732686_x_at) / RFU ORM1 (11744905_x_at) / Fold change /veh ORM1 (11744905_x_at) / RFU CCDC152 (11743942_at) / Fold change /veh CCDC152 (11743942_at) / RFU ECM1 (11717891_a_at) / Fold change /veh ECM1 (11717891_a_at) / RFU IL23R (11748794_a_at) / Fold change /veh IL23R (11748794_a_at) / RFU TNFAIP8L3 (11732012_x_at) / Fold change /veh TNFAIP8L3 (11732012_x_at) / RFU MBOAT4 (11741988_at) / Fold change /veh MBOAT4 (11741988_at) / RFU 11764193_at / Fold change /veh 11764193_at / RFU TMEM53 (11763286_at) / Fold change /veh TMEM53 (11763286_at) / RFU MAGEB2 (11727129_at) / Fold change /veh MAGEB2 (11727129_at) / RFU TMEM200A (11744735_a_at) / Fold change /veh TMEM200A (11744735_a_at) / RFU CCDC152 (11751479_a_at) / Fold change /veh CCDC152 (11751479_a_at) / RFU FAM211A (11726209_a_at) / Fold change /veh FAM211A (11726209_a_at) / RFU RGS16 (11746705_a_at) / Fold change /veh RGS16 (11746705_a_at) / RFU VCAN (11755009_s_at) / Fold change /veh VCAN (11755009_s_at) / RFU RHOB (11743442_s_at) / Fold change /veh RHOB (11743442_s_at) / RFU RGS16 (11720943_a_at) / Fold change /veh RGS16 (11720943_a_at) / RFU RGS16 (11720944_at) / Fold change /veh RGS16 (11720944_at) / RFU, VPS4B / Fold change vs veh, VPS4B / RFU, CREB1 / Fold change vs veh, CREB1 / RFU, DNAJC13 / Fold change vs veh, DNAJC13 / RFU, GNAQ / Fold change vs veh, GNAQ / RFU, CDK5R1 / Fold change vs veh, CDK5R1 / RFU, ZRANB3 / Fold change vs veh, ZRANB3 / RFU, CUL4A / Fold change vs veh, CUL4A / RFU, CCNY / Fold change vs veh, CCNY / RFU, UFL1 / Fold change vs veh, UFL1 / RFU, COG3 / Fold change vs veh, COG3 / RFU, DIAPH2 / Fold change vs veh, DIAPH2 / RFU, SKA2 / Fold change vs veh, SKA2 / RFU, AFF3 / Fold change vs veh, AFF3 / RFU, LMF1 / Fold change vs veh, LMF1 / RFU, IPO11 / Fold change vs veh, IPO11 / RFU, DFFB / Fold change vs veh, DFFB / RFU, FOXP1 / Fold change vs veh, FOXP1 / RFU, CARD8 / Fold change vs veh, CARD8 / RFU, STRN3 / Fold change vs veh, STRN3 / RFU, ADK / Fold change vs veh, ADK / RFU, RASSF2 / Fold change vs veh, RASSF2 / RFU, WIPF1 / Fold change vs veh, WIPF1 / RFU, LARP1B / Fold change vs veh, LARP1B / RFU, RASA1 / Fold change vs veh, RASA1 / RFU, RB1 / Fold change vs veh, RB1 / RFU, PPFIA1 / Fold change vs veh, PPFIA1 / RFU, MAT2A / Fold change vs veh, MAT2A / RFU, CCT5 / Fold change vs veh, CCT5 / RFU, WDR92 / Fold change vs veh, WDR92 / RFU, CUX1 / Fold change vs veh, CUX1 / RFU, TTC7A / Fold change vs veh, TTC7A / RFU, TMEM135 / Fold change vs veh, TMEM135 / RFU, DEPTOR / Fold change vs veh, DEPTOR / RFU, CPM / Fold change vs veh, CPM / RFU, DNAJB6 / Fold change vs veh, DNAJB6 / RFU, CACNA2D3 / Fold change vs veh, CACNA2D3 / RFU, DTX4 / Fold change vs veh, DTX4 / RFU, TFCP2 / Fold change vs veh, TFCP2 / RFU, GMCL1 /// GMCL1P1 / Fold change vs veh, GMCL1 /// GMCL1P1 / RFU, AEBP2 / Fold change vs veh, AEBP2 / RFU, SNHG1 /// SNORD22 /// SNORD25 /// SNORD26 /// SNORD27 /// SNORD28 /// SNORD29 /// SNORD31 / Fold change vs veh, SNHG1 /// SNORD22 /// SNORD25 /// SNORD26 /// SNORD27 /// SNORD28 /// SNORD29 /// SNORD31 / Fold change (Aza/veh), C12orf56 (ProbeSet 11735607_a_at) / Fold change (ACY-1035/veh), C12orf56 (ProbeSet 11735607_a_at) / Fold change (Aza/veh), FGFR1OP (ProbeSet 11751329_s_at) / Fold change (ACY-1035/veh), FGFR1OP (ProbeSet 11751329_s_at) / Fold change (Aza/veh), VPS36 (ProbeSet 11739960_a_at) / Fold change (ACY-1035/veh), VPS36 (ProbeSet 11739960_a_at) / RFU SYPL1 (11715823_x_at) / Fold change /veh SYPL1 (11715823_x_at) / RFU IGFBP7 (11715501_s_at) / Fold change /veh IGFBP7 (11715501_s_at) / RFU REEP3 (11722064_at) / Fold change /veh REEP3 (11722064_at) / RFU IGLL1 (11728026_x_at) / Fold change /veh IGLL1 (11728026_x_at): dose or concentration left out as unconfirmed
Details: ProbeSet 11731461_x_at; LIST D

Nc1ccc(-c2cccs2)cc1NC(=O)c1ccc2c(c1)cc(C1CC1)n2CCN1CCOCC1 [ACY-1035]
Fold change vs veh, CPM: 0.83
